Results published in article PMC5479826, “Determination of Crucial Immunogenic Epitopes in Major Peanut Allergy Protein, Ara h2, via Novel Nanoallergen Platform” (Scientific Reports, 2017).

Tested on: patient sera IgEs
Experiment: ELISA binding assay with patient sera
Parameters: species or system human
Protocol: A high binding 96 well plate was incubated with anti-Human IgE in Carbonate-Bicarbonate buffer (Sigma) at a concentration of 3 nM for 16 hours at 4 °C. Plate was washed with washing buffer (PBS with 0.5% tween 20) and then blocked with blocking buffer (5% BSA in PBS with 0.1% tween 20) for 1 hr at room temperature. Plate was washed with automatic plate washer (AquaMax 2000), then varying concentrations of either Ara h2-Biotin (Indoors Biotechnologies) or FITC-peptide 2 conjugate in blocking buffer for 1 hour. Plate was washed again and then either streptavidin-HRP (1:5 000 dilution) or anti-FITC HRP IgG (1:5000 dilution) was added in blocking buffer. After another washing step, Amplex Red substrate was added (Invitrogen) and plate fluorescence was read at 5 minute intervals according to manufacturer’s instructions.

EC50 (Fig. S-2, patient serum 1 on anti-IgE coated plate, Ara h 2-Biotin or FITC-tagged epitope 2 peptide): 465 ± 200 nM
Substance: ERDPYSP^OHSQDPYSP^OHS [Epitope 2]
Binding to patient sera IgEs in ELISA (detectability) (serum 1, result in words): detectable binding
